# Experimental data taken from patent US11452291B2, “Induction of a physiological dispersion response in bacterial cells in a biofilm” (The Research Foundation for The State University of New York, priority 2007, dated 2022).
# Legend:
# [1] = tested on: P. aeruginosa biofilms; experiment: Microtiter plate dispersion bioassay; type: cell-based, Pseudomonas aeruginosa PAO1
# Protocol: Microtiter plate dispersion bioassays were used to test various preparations for their ability to exogenously induce biofilm dispersion. Biofilms were grown on the inside surface of microtiter plate wells using a semi-batch culture method in which the medium within each well was replaced periodically to reduce the accumulation of native dispersion inducing factors. Biofilms grown in this manner were treated with dispersion inducer or sterile medium to release cells into the bulk liquid and evaluate dispersed cell number by measuring optical density. Briefly, sterile polystyrene 96 well plates were etched with acetone for 10 seconds to create a rough surface for the attachment of microbial cells. After drying for 24 hours, plates were inoculated with 150 μL/well of overnight culture containing the test organism, previously diluted 1:20 in growth medium and incubated at 30° C. with shaking at 200 rpm. Medium in the wells was replaced every 24 hours for 5 days and every 12 hours on day 6 and day 7. Medium was then replaced after 7 hours. Dispersion induction was tested by adding 150 μL growth medium containing dispersion inducer for 1 hr at 30° C. or sterile medium as a control. Medium containing dispersed cells was then transferred by pipet to a non-etched microtiter plate and the optical density (OD570) was determined (ELx808 Absorbance Microplate Reader; BioTek Instruments, Inc., Winooski, Vt.). […] Note: Microtiter plate dispersion bioassays were not suitable for determining absolute magnitude of an induced dispersion response because in a semi-batch system, control and test samples are susceptible to natural dispersion against which the activity of exogenous induction is measured. All efficiency studies were performed using biofilm tube reactor or flow-cell continuous culture systems and were based on both total cell counts and viable cell counts.
# [2] = tested on: P. aeruginosa biofilm microcolonies; experiment: Microscopic analysis of mature biofilm in flow cell; type: cell-based, Pseudomonas aeruginosa
# Protocol: A continuous-culture once-through flow cell was configured to observe the growth and development of biofilms attached to a glass substratum. The flow cell was constructed of aluminum containing a chamber 1.0 mm by 1.4 cm by 4.0 cm capped with a glass cover slip. Sterile modified EPRI medium was pumped from a 10-liter vessel through silicone tubing to the flow cell using a Masterflex 8-roller-head peristaltic pump at a flow rate of 0.13 mL/min. Flow through the chamber was laminar, with a Reynolds number of 0.17, having a fluid residence time of 4.3 min. Medium leaving the flow cell was discharged to an effluent reservoir via silicone tubing. The entire system was closed to the outside environment but maintained in equilibrium with atmospheric pressure by a 0.2-μm-pore-size gas-permeable filter fitted to each vessel. […] Each cell cluster was measured to determine its height by focusing from the substratum through to the apex of the cluster, and its width by measurement at the base of the cell cluster using a stage micrometer. Cell clusters were defined as cells embedded within an exopolysaccharide matrix attached to the substratum and lacking motility; void areas within cell clusters were determined by the observation of free-swimming bacteria within a space inside a cell cluster. […]
# [3] = tested on: biofilm cells of Staphylococcus aureus; settings: cited from earlier work
smiles,measurement,setting,value
"CC(C)CCCCCCC/C=C\C(=O)O [DSF, reference compound]",promotion of dispersion of P. aeruginosa,[1],shown not to promote dispersion
CCCCCCC/C=C\C(=O)O [cis-2-decenoic acid],time at which microcolony disaggregation begins,[2]; 10 μM added to mature biofilm in flow cell,11 min
same,effect on biofilm microcolony by microscopy,[2]; FIG. 13,completely disrupting a biofilm microcolony
same,dispersion activity compared to un-concentrated spent culture medium,[1]; 1.0 nanomolar,greater dispersion activity at 1.0 nanomolar than un-concentrated spent culture medium
"OCl [chlorine, sodium hypochlorite]",increase in concentration required to kill biofilm cells compared to planktonic cells,[3],600 fold
CCCCCCC/C=C/C(=O)O [trans-2-decenoic acid],concentration range with dispersion activity,[1]; biofilm cultures grown in microtiter plates,activity only at millimolar concentrations
